# Source: US20250098679A1, “HERBICIDAL PYRIDONE DERIVATIVES” (SYNGENTA CROP PROTECTION AG, priority 2021, published 2025)
# How the values were obtained:
# Type in all cases: in vivo
# Conditions in all cases: evaluated after 13 days
# [1] = system: Echinochloa crus-galli (ECHCG); test: Post-emergence Test, Echinochloa crus-galli (ECHCG); parameters: key to percentage damage caused to the plant, ECHCG (five-point scale): 5=81-100%, 4=61-80%, 3=41-60%, 2=21-40%, 1=0-20% damage
# Outline: (§1)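 Pots sprayed with compound in acetone/water (50:50) with 0.5% Tween 20, at 1000 g/ha unless noted, glasshouse 24/16 °C, 14 h light, 65% humidity. Damage scored 13 days after spraying on a five-point scale (5=81-100% to 1=0-20%).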
# [2] = system: Echinochloa crus-galli (ECHCG); test: Pre-emergence Test, Echinochloa crus-galli (ECHCG)
# [3] = system: Setaria faberi (SETFA); test: Post-emergence Test, Setaria faberi (SETFA); parameters: key to percentage damage caused to the plant, SETFA (five-point scale): 5=81-100%, 4=61-80%, 3=41-60%, 2=21-40%, 1=0-20% damage
# Outline: as §1
# [4] = system: Setaria faberi (SETFA); test: Pre-emergence Test, Setaria faberi (SETFA)
# [5] = system: Amaranthus retoflexus (AMARE); test: Post-emergence Test, Amaranthus retoflexus (AMARE); parameters: key to percentage damage caused to the plant, AMARE (five-point scale): 5=81-100%, 4=61-80%, 3=41-60%, 2=21-40%, 1=0-20% damage
# Outline: as §1
# [6] = system: Amaranthus retoflexus (AMARE); test: Pre-emergence Test, Amaranthus retoflexus (AMARE)
# [7] = system: Amaranthus palmeri (AMAPA); test: Pre-emergence Test, Amaranthus palmeri (AMAPA)
# [8] = system: Zea mays (ZEAMX); test: Post-emergence Test, Zea mays (ZEAMX); parameters: key to percentage damage caused to the plant, ZEAMX (five-point scale): 5=81-100%, 4=61-80%, 3=41-60%, 2=21-40%, 1=0-20% damage
# Outline: as §1
# [9] = system: Ipomoea hederacea (IPOHE); test: Post-emergence Test, Ipomoea hederacea (IPOHE); parameters: key to percentage damage caused to the plant, IPOHE (five-point scale): 5=81-100%, 4=61-80%, 3=41-60%, 2=21-40%, 1=0-20% damage
# Outline: as §1
# [10] = system: Ipomoea hederacea (IPOHE); test: Pre-emergence Test, Ipomoea hederacea (IPOHE)
# [11] = system: Zea mays (ZEAMX); test: Pre-emergence Test, Zea mays (ZEAMX)
# [12] = system: Amaranthus palmeri (AMAPA); test: Post-emergence Test, Amaranthus palmeri (AMAPA); parameters: key: 5=81-100%, 4=61-80%, 3=41-60%, 2=21-40%, 1=0-20% damage
# Outline: as §1
SMILES,"percentage damage caused to the plant, ECHCG (five-point scale) ([1]; 250 g/Ha)","percentage damage caused to the plant, ECHCG (five-point scale) ([1]; 1000 g/ha)","Pre-emergence Test ECHCG, percentage damage caused to the plant (five-point scale) ([2]; 250 g/Ha (*))","Pre-emergence Test ECHCG, percentage damage caused to the plant (five-point scale) ([2]; 1000 g/ha)","percentage damage caused to the plant, SETFA (five-point scale) ([3]; 1000 g/ha)","Pre-emergence Test SETFA, percentage damage caused to the plant (five-point scale) ([4]; 1000 g/ha)","percentage damage caused to the plant, AMARE (five-point scale) ([5]; 250 g/Ha)","percentage damage caused to the plant, AMARE (five-point scale) ([5]; 1000 g/ha)","Pre-emergence Test AMARE, percentage damage caused to the plant (five-point scale) ([6]; 1000 g/ha)","Pre-emergence Test AMAPA, percentage damage caused to the plant (five-point scale) ([7]; 250 g/Ha (*))","Pre-emergence Test AMAPA, percentage damage caused to the plant (five-point scale) ([7]; 1000 g/ha)","percentage damage caused to the plant, ZEAMX (five-point scale) ([8]; 250 g/Ha)","percentage damage caused to the plant, ZEAMX (five-point scale) ([8]; 1000 g/ha)","percentage damage caused to the plant, IPOHE (five-point scale) ([9]; 250 g/Ha)","percentage damage caused to the plant, IPOHE (five-point scale) ([9]; 1000 g/ha)","Pre-emergence Test IPOHE, percentage damage caused to the plant (five-point scale) ([10]; 250 g/Ha (*))","Pre-emergence Test IPOHE, percentage damage caused to the plant (five-point scale) ([10]; 1000 g/ha)","Pre-emergence Test ZEAMX, percentage damage caused to the plant (five-point scale) ([11]; 250 g/Ha (*))","Pre-emergence Test ZEAMX, percentage damage caused to the plant (five-point scale) ([11]; 1000 g/ha)","percentage damage caused to the plant, AMAPA (five-point scale) ([12]; 1000 g/ha)",also measured
"CCn1c(Cn2nc(C(F)(F)F)cc2OC)cc(=O)c(C(=O)O)c1-c1ccc(Cl)c(Cl)c1 [Compound 145, 2-(3,4-dichlorophenyl)-1-ethyl-6-[[5-methoxy-3-(trifluoromethyl)pyrazol-1-yl]methyl]-4-oxo-pyridine-3-carboxylic acid]",3 (3=41-60%),4 (4=61-80%),2 (2=21-40%),4 (4=61-80%),4 (4=61-80%),5 (5=81-100%),1 (1=0-20%),3 (3=41-60%),1 (1=0-20%),0,0,1 (1=0-20%),3 (3=41-60%),3 (3=41-60%),3 (3=41-60%),0,3 (3=41-60%),0,0,3 (3=41-60%),"percentage damage caused to the plant, SETFA (five-point scale) ([3]; 250 g/Ha): 3 (3=41-60%); Pre-emergence Test SETFA, percentage damage caused to the plant (five-point scale) ([4]; 250 g/Ha (*)): 5 (5=81-100%); Pre-emergence Test AMARE, percentage damage caused to the plant (five-point scale) ([6]; 250 g/Ha (*)): 0; percentage damage caused to the plant, AMAPA (five-point scale) ([12]; 250 g/Ha): 0"
"CCOC(=O)c1c(-c2ccc(Cl)c(Cl)c2)n(CC)c(Cn2ncc3cnc(Cl)cc32)cc1=O [Compound 52, ethyl 6-[(6-chloropyrazolo[4,3-c]pyridin-1-yl)methyl]-2-(3,4-dichlorophenyl)-1-ethyl-4-oxo-pyridine-3-carboxylate]",–,1 (1=0-20%),–,–,1 (1=0-20%),0,–,0,1 (1=0-20%),–,1 (1=0-20%),–,0,–,2 (2=21-40%),–,0,–,0,2 (2=21-40%),–
"CCn1c(Cn2ncc(Cl)c2C)cc(=O)c(C(=O)O)c1-c1ccc(Cl)c(Cl)c1 [Compound 88, 6-[(4-chloro-5-methyl-pyrazol-1-yl)methyl]-2-(3,4-dichlorophenyl)-1-ethyl-4-oxo-pyridine-3-carboxylic acid]",3 (3=41-60%),2 (2=21-40%),–,3 (3=41-60%),4 (4=61-80%),2 (2=21-40%),1 (1=0-20%),1 (1=0-20%),–,–,–,0,3 (3=41-60%),2 (2=21-40%),2 (2=21-40%),–,2 (2=21-40%),–,1 (1=0-20%),2 (2=21-40%),"percentage damage caused to the plant, SETFA (five-point scale) ([3]; 250 g/Ha): 0; percentage damage caused to the plant, AMAPA (five-point scale) ([12]; 250 g/Ha): 1 (1=0-20%)"
"CCOC(=O)c1c(C)cnn1Cc1cc(=O)c(C(=O)O)c(-c2ccc(Cl)c(Cl)c2)n1CC [Compound 122, 2-(3,4-dichlorophenyl)-6-[(5-ethoxycarbonyl-4-methyl-pyrazol-1-yl)methyl]-1-ethyl-4-oxo-pyridine-3-carboxylic acid]",–,–,0,–,–,–,–,–,–,1 (1=0-20%),–,–,–,–,–,0,–,0,–,–,"Pre-emergence Test SETFA, percentage damage caused to the plant (five-point scale) ([4]; 250 g/Ha (*)): 1 (1=0-20%); Pre-emergence Test AMARE, percentage damage caused to the plant (five-point scale) ([6]; 250 g/Ha (*)): 0"
"CCn1c(Cn2cc(C(=O)OC)cn2)cc(=O)c(C(=O)OC(C)(C)C)c1-c1ccc(Cl)c(Cl)c1 [Compound 61, tert-butyl 2-(3,4-dichlorophenyl)-1-ethyl-6-[(4-methoxycarbonyl-pyrazol-1-yl)methyl]-4-oxo-pyridine-3-carboxylate]",–,0,–,–,1 (1=0-20%),1 (1=0-20%),–,1 (1=0-20%),1 (1=0-20%),–,1 (1=0-20%),–,0,–,0,–,0,–,0,0,–
"CCn1c(Cn2ccc(OCC(F)(F)F)n2)cc(=O)c(C(=O)O)c1-c1ccc(Cl)c(Cl)c1 [Compound 185, 2-(3,4-dichlorophenyl)-1-ethyl-4-oxo-6-[[3-(2,2,2-trifluoroethoxy)pyrazol-1-yl]methyl]pyridine-3-carboxylic acid]",3 (3=41-60%),–,1 (1=0-20%),5 (5=81-100%),4 (4=61-80%),–,1 (1=0-20%),3 (3=41-60%),3 (3=41-60%),1 (1=0-20%),2 (2=21-40%),1 (1=0-20%),4 (4=61-80%),3 (3=41-60%),3 (3=41-60%),1 (1=0-20%),3 (3=41-60%),0,3 (3=41-60%),3 (3=41-60%),"Pre-emergence Test AMARE, percentage damage caused to the plant (five-point scale) ([6]; 250 g/Ha (*)): 1 (1=0-20%); percentage damage caused to the plant, AMAPA (five-point scale) ([12]; 250 g/Ha): 1 (1=0-20%)"
"CCn1c(Cn2ccc(C3CC3)n2)cc(=O)c(C(=O)O)c1-c1ccc(Cl)c(Cl)c1 [Compound 179, 6-[(3-cyclopropylpyrazol-1-yl)methyl]-2-(3,4-dichlorophenyl)-1-ethyl-4-oxo-pyridine-3-carboxylic acid]",3 (3=41-60%),–,1 (1=0-20%),5 (5=81-100%),4 (4=61-80%),–,0,3 (3=41-60%),4 (4=61-80%),0,2 (2=21-40%),3 (3=41-60%),4 (4=61-80%),4 (4=61-80%),4 (4=61-80%),0,4 (4=61-80%),0,5 (5=81-100%),3 (3=41-60%),"percentage damage caused to the plant, AMAPA (five-point scale) ([12]; 250 g/Ha): 1 (1=0-20%)"
